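Five concentrations, 48 hours, 96-well plates. At the GI50, growth is halved.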 Calls of active or inactive are those of the source. Rule as the data show it: active = GI50 up to about 1.1 µM and inactive = higher.
Experiments:
Test in all cases: DTP human tumour cell line panel, 48 h
SK-MEL-2 = test system: SK-MEL-2
SK-OV-3 = test system: SK-OV-3
K562 = test system: K562
NCI-H460 = test system: NCI-H460
HCT-116 = test system: HCT-116
CCRF-CEM = test system: CCRF-CEM
NCI-H226 = test system: NCI-H226
786-0 = test system: 786-0
OVCAR-5 = test system: OVCAR-5
UO-31 = test system: UO-31
U-251 = test system: U-251
TK-10 = test system: TK-10
Malme-3M = test system: Malme-3M
A498 = test system: A498
HOP-92 = test system: HOP-92

Measured: GI50

O=C1OC(=O)C23CSCC12C1C=CC3O1 (stereo unspecified)
inactive: SK-MEL-2 > 100 µM | SK-OV-3 > 100 µM | K562 > 100 µM | NCI-H460 > 100 µM | HCT-116 > 100 µM | CCRF-CEM > 100 µM | NCI-H226 > 100 µM | 786-0 > 100 µM | OVCAR-5 > 100 µM | UO-31 > 100 µM | U-251 > 100 µM | TK-10 > 100 µM | Malme-3M > 100 µM | A498 > 100 µM

CCC1(C(=O)OC)CCc2c(OC)ccc(OC)c2C1=O (stereo unspecified)
inactive: SK-MEL-2 > 100 µM | SK-OV-3 > 100 µM | K562 > 100 µM | NCI-H460 > 100 µM | HCT-116 > 100 µM | CCRF-CEM > 100 µM | 786-0 > 100 µM | OVCAR-5 > 100 µM | UO-31 > 100 µM | U-251 > 100 µM | TK-10 > 100 µM | Malme-3M > 100 µM | A498 > 100 µM

CC(CCCOC(c1ccccc1)(c1ccccc1)c1ccccc1)OC(=O)Nc1ccccc1 (stereo unspecified)
inactive: SK-OV-3 14.2 µM | K562 11.3 µM | NCI-H460 11.7 µM | HCT-116 11.1 µM | CCRF-CEM 14.6 µM | NCI-H226 12.6 µM | 786-0 16.1 µM | OVCAR-5 13.7 µM | UO-31 11.6 µM | U-251 13.6 µM | TK-10 20.4 µM | Malme-3M 15.8 µM | HOP-92 10 µM

C/C(CCn1[nH]c(=O)ccc1=O)=N\NC(=O)C(N)=O
inactive: SK-MEL-2 > 100 µM | K562 > 100 µM | NCI-H460 > 100 µM | HCT-116 > 100 µM | NCI-H226 > 100 µM | 786-0 > 100 µM | OVCAR-5 > 100 µM | UO-31 > 100 µM | U-251 > 100 µM | TK-10 > 100 µM | Malme-3M > 100 µM | HOP-92 > 100 µM | A498 > 100 µM

COc1ccc(/C(C#N)=C(/N)SCc2ccccc2Cl)cc1
inactive: SK-MEL-2 16.5 µM | SK-OV-3 27.8 µM | K562 18.5 µM | HCT-116 18.8 µM | CCRF-CEM 27.9 µM | NCI-H226 16.4 µM | 786-0 16.1 µM | OVCAR-5 18.2 µM | UO-31 > 10 µM | U-251 18.1 µM | TK-10 32.1 µM | Malme-3M 17.5 µM | HOP-92 17.8 µM | A498 18.9 µM

O=C(O)C1C2CC3CC2CC31 (stereo unspecified)
inactive: SK-MEL-2 > 100 µM | SK-OV-3 > 100 µM | K562 > 100 µM | NCI-H460 > 100 µM | HCT-116 > 100 µM | CCRF-CEM > 100 µM | 786-0 > 100 µM | OVCAR-5 > 100 µM | UO-31 > 100 µM | U-251 > 100 µM | TK-10 > 100 µM | Malme-3M > 100 µM | HOP-92 > 100 µM | A498 > 100 µM

N#CC1CC2(C1)OCCS2 (stereo unspecified)
inactive: SK-MEL-2 > 100 µM | K562 > 100 µM | NCI-H460 > 100 µM | HCT-116 > 100 µM | CCRF-CEM > 100 µM | NCI-H226 > 100 µM | 786-0 > 100 µM | OVCAR-5 > 100 µM | UO-31 > 100 µM | U-251 > 100 µM | TK-10 > 100 µM | A498 > 100 µM

CC1(c2cccc(N)c2)C2C(=O)NC(=O)C1C(=O)NC2=O (stereo unspecified)
inactive: SK-MEL-2 24.3 µM | SK-OV-3 23.9 µM | K562 24.2 µM | NCI-H460 33 µM | CCRF-CEM 22.4 µM | NCI-H226 28.1 µM | 786-0 38.3 µM | OVCAR-5 38.6 µM | UO-31 22.3 µM | TK-10 50.9 µM | Malme-3M 31.1 µM | HOP-92 22.9 µM | A498 23.4 µM

O=C(O)c1c([N+](=O)[O-])cc(C(F)(F)F)cc1[N+](=O)[O-]
inactive: SK-MEL-2 > 100 µM | K562 > 100 µM | NCI-H460 > 100 µM | HCT-116 > 100 µM | CCRF-CEM > 100 µM | NCI-H226 > 100 µM | 786-0 > 100 µM | OVCAR-5 > 100 µM | UO-31 > 100 µM | U-251 > 100 µM | TK-10 > 100 µM | HOP-92 74.6 µM | A498 > 100 µM

CC(=O)N1[C@H](C(=O)O)CS[C@H]1c1ccc(F)cc1
inactive: K562 > 100 µM | NCI-H460 > 100 µM | HCT-116 29.1 µM | CCRF-CEM > 100 µM | NCI-H226 > 100 µM | 786-0 > 100 µM | OVCAR-5 > 100 µM | UO-31 > 100 µM | TK-10 > 100 µM | Malme-3M > 100 µM | HOP-92 > 100 µM | A498 > 100 µM

Reference: ChEMBL document CHEMBL1201862, “PubChem BioAssay data set” (2004)
